Assays:
[1] = biological target: T1, human MC1R (Homo sapiens, UniProt Q01726); assay: Melanocortin receptor radioligand binding (SPA, [125I]-NDP-α-MSH displacement), MC1R; conditions: competitive binding, mean (± SEM) of at least three independent experiments, read-out: IC50 hMC1R binding
T1 construct: expressed in transfected cells

[2] = biological target: T2, human MC3R (Homo sapiens, UniProt P41968); assay: Melanocortin receptor radioligand binding (SPA, [125I]-NDP-α-MSH displacement), MC3R; conditions: competitive binding, mean (± SEM) of at least three independent experiments, read-out: IC50 hMC3R binding
T2 construct: expressed in transfected cells
T2 sequence (P41968 whole entry): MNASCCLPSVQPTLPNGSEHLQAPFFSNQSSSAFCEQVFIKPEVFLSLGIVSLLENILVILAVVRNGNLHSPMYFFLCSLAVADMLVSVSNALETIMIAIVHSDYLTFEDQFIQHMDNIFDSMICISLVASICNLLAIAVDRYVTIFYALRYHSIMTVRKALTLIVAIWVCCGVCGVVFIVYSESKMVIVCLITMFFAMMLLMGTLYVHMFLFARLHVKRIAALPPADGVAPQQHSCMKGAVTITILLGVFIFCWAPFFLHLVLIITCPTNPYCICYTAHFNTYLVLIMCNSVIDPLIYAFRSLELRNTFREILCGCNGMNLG

[3] = biological target: T3, human MC5R (Homo sapiens, UniProt P33032); assay: Melanocortin receptor radioligand binding (SPA, [125I]-NDP-α-MSH displacement), MC5R; conditions: competitive binding, [125I]-NDP-α-MSH; mean (± SEM) of at least three independent experiments; read-out: IC50 hMC5R binding
T3 construct: expressed in transfected cells; host or cells: HEK293-6E suspension cells, transient expression; membranes
T3 sequence (P33032 whole entry): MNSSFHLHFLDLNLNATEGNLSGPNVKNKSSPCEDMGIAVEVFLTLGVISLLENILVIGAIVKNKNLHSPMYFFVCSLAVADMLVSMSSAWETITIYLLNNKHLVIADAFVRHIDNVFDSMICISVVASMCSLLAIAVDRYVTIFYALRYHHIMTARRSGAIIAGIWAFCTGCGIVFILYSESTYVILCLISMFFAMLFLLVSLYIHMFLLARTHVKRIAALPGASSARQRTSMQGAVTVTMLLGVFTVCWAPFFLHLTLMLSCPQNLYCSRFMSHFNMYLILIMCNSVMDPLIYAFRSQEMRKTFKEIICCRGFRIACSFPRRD

[4] = biological target: T1, human MC1R; assay: cAMP assay (LANCE) in T-Rex-293 cells expressing MC1R; format: cell-based
[5] = biological target: T2, human MC3R; assay: cAMP assay (LANCE) in T-Rex-293 cells expressing MC3R; format: cell-based; conditions: cAMP assay; mean (± SEM) of at least three independent experiments; read-out: EC50 hMC3R cAMP
[6] = biological target: hMC1−5R; assay: Melanocortin receptor radioligand binding, result stated for all receptors together; design: species or system human
Source text: Example concentration response curves for selected PepNats in MC1R, MC3R, MC4R, MC5R radioligand binding assays and MC1R, MC3R, MC4R cAMP assays. Responses were normalized to reference agonist NDP -α-MSH and presented as % effect of control, with full competition in binding defined as -100% and full agonism in cAMP assays defined as […]
binding assay. Threshold to define a compound as active was set to -30% in binding assays and 20% in cAMP assays respectively. Data are from at least three independent experiments and error bars represent ± Standard Error of the […]
% s p e c ific b in d in g o f
(1 picture or pasted object on this page, not shown here) […]
expression, MC1R and MC4R transfected cells were treated with 0.1 ng /mL and MC3R transfected cells with 10 ng/mL doxycyclin, for 24 h before assay.
Melanocortin receptor radioligand binding and cAMP assays.
Binding and cAMP assays were performed as described by Durek et al.7 “A 384-well format scintillation proximity assay (SPA) was used to identify compounds that show competitive binding to the human Melanocortin receptor 1,3,4 or 5 ligand binding domain (LBD). […] The inhibition of the scintillation signal by displacement of [ 125I]- NDP-α-MSH by test compounds were detected by a 1450 MicroBeta Trilux scintillation counter […]
Plates were incubated for 16-23 h in the dark at room temperature before reading on a 1450 […]
Measurements of cAMP production were performed using LANCE® cAMP kits (PerkinElmer) in a total assay volume of 12 µl/well. […] The reaction was stopped with detection buffer containing 10 µM Biotin-cAMP and 15 µM LANCE Eu-W8044 labelled streptavidin (PerkinElmer LANCE cAMP kit). cAMP production was detected by homogenous time resolved fluorescence (HTRF) (λex = 340 nm, λem = 665 and 615 nm) using a Pherastar (BMG Labtech).
PepNats, literature compounds and references were tested in ten-point concentration response (½ log serial dilution) with 100, 10 or 1 µM as final start concentrations. Raw data output was analyzed in Screener software (Genedata AG) and pEC50 and pIC50 values calculated using a four-

T1 sequence (Q01726 whole entry): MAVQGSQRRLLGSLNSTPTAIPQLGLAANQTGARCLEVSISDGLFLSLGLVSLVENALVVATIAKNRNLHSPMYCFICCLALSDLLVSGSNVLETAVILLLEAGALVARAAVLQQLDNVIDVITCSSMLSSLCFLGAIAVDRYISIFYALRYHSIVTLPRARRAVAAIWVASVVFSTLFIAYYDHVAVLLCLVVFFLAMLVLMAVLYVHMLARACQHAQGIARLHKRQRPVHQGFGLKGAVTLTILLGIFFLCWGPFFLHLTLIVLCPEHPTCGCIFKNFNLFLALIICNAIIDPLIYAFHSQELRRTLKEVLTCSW

IC50 [1]: > 100 µM
IC50 [2]: > 100 µM
IC50 [3]: > 100 µM
% Effect hMC1R cAMP at 100 µM ([4]; % effect at 100 µM, compounds not reaching an upper plateau (§)): 30%
EC50 ([4]; cAMP assay, mean (± SEM) of at least three independent experiments, read-out: EC50 hMC1R cAMP): > 100 µM
EC50 [5]: > 100 µM
IC50 ([6]; competitive binding, one bound printed for all receptors): > 100 µM
binding to the MC receptors (in words) ([6]; human MC receptors, radioligand binding): did not bind to any of the receptors
SMILES: CN1C(=O)[C@H]2N[C@@H](c3ccc(cc3)C(=O)NCCCC[C@@H](C(=O)N[C@@H](Cc3ccc(O)cc3)C(N)=O)NC(=O)[C@H](CC(N)=O)NC(=O)[C@@H](Cc3ccccc3)NC(=O)[C@@H](Cc3ccccc3)NC(=O)[C@H](CCCNC(=N)N)NC(=O)[C@@H]1Cc1ccccc1)[C@H]1C(=O)N(c3ccccc3)C(=O)[C@H]12 [K1-minor, [II-FRffNK ]Y]

Reference: article PMC7307906, “Macrocyclic Modalities Combining Peptide Epitopes and Natural Product Fragments” (Journal of the American Chemical Society, 2020)
